Experimental data: article PMC5823406, “Vehicle development, pharmacokinetics and toxicity of the anti-invasive agent 4-fluoro-3’,4’,5’-trimethoxychalcone in rodents” (PLoS ONE, 2018)

Legend:
MCF-7/6 = test system: MCF-7/6; set-up: method as in PMID 26204510; conditions: cited from earlier work
[1] = Stability and homogeneity of C16 dispersion in Medigel Sucralose; format: physicochemical; conditions: for Peak ratio C16/IS relative to first time point, Average of three wavelengths: Medigel Sucralose 235.29 mg/cup, 1.64% DMSO
Protocol: A pre-weighed amount of C16 was dissolved in 1 mL of DMSO and the resulting solution was delivered into a cup of Medigel sucralose (pre-warmed to room temperature) with a syringe through the foil lid. In order to facilitate even distribution of C16 in the gel, the injection was spread over several points. The resulting suspension of C16 in gel was dispersed evenly by vigorous shaking for at least two minutes. Visual control confirmed a uniform and finely dispersed suspension of C16 particles in the gel. The final DMSO concentration in the gel was 1.64%. […]
A.B. Vehicle development for repeated high-dose PO administration of C16 b. Stability test of the 300 mg/kg preparation of C16 in Medigel Sucralose at room temperature The 300 mg/kg preparation refers to a cup containing 235.29 mg of C16 and 1.64% DMSO (see Materials and Methods section of main text). Sampling took place for a solvent control cup (containing only 1.64% DMSO) , and for the medicated cup at 0.17, 5.33, 55, 102 and 144 h post preparation. Samples of 1 mL were withdrawn with syringe and needle through the lid, and mixed with 1 mL of acetonitrile. The supernatant of the resulting suspension was filtered through a Whatman 0.2 µm PTFE syringe filter and analyzed using HPLC -MS.
Instrument: Agilent 1200 series HPLC system
Column: Ascentis Express C18 column 2.7 µm (30 x 4.6 mm)
Mobile phase A: Water (H2O) + 5 mM NH4OAc
Mobile phase B: Acetonitrile
Column Temperature: 40 °C
UV Detector: Diode array detector, 190 – 400 nm
Table B. Stability of C16 in Medigel Sucralose: g radient program .
Time (min) Flow rate (mL/min) A (%) B (%)
Mass spectrometer conditions
Instrument: Agilent 1100 series VL mass spectrometer
Ionization mode: API-ES, positive ions
Main derivative: Z-isomer of C16
Retention time : 3.34 min
Table C. Stability of C16 in Medigel Sucralose: evolution of peak areas of IS, C16 and its Z-isomer in time for three wavelengths. […]
time IS peak C16 Z- Ratio IS peak C16 Z- Ratio IS peak C16 Z- Ratio
(h) area peak isomer (C16/IS area peak isomer (C16/IS area peak isomer (C16/IS (mAU.s) area peak peak (mAU.s) area peak peak (mAU.s) area peak peak
(mAU.s) area area) (mAU.s) area area) (mAU.s) area area)
Peak ratios for stability assessment
Peak ratios for C16/IS, relative to the first time point, were calculated for three wavelengths (Table D).
Table D. Stability of C16 in Medigel Sucralose: peak ratios for C16/IS, relative to first time point, for three wavelengths.
Peak ratios for homogeneity assessment of a 300 mg/kg C16-doped gel
The 300 mg/kg preparation refers to a cup containing 235.29 mg of C16 and 1.64% DMSO. After preparation (see ‘Materials and Methods’ section of main text), the gel was sampled through the lid at five sites (Fig A).
Fig A. Sampling of C16-doped Medigel Sucralose.
The samples were analyzed according to the method described above for the stability test of C16 in Medigel Sucralose […]
Table E. Peak areas of IS, C16 and its Z-isomer at five sampling sites for three wavelengths. […]
sites IS peak C16 peak Ratio IS peak C16 peak Ratio IS peak C16 peak Ratio area area (C16/IS area area (C16/IS area area (C16/IS
(mAU.s) (mAU.s) peak area) (mAU.s) (mAU.s) peak area) (mAU.s) (mAU.s) peak area) […]
Individual plasma concentrations for C16 are shown in Table F and Table G. All data are expressed as ng/mL of the free drug. Samples that were below the limit of quantitation were not used in the calculation of averages. Plasma concentrations versus time data are plotted in Fig B and Fig C. Measured dosing concentrations were used in all pharmacokinetic calculations.
(1 picture or pasted object on this page, not shown here)

Compound: COc1cc(C(=O)/C=C/c2ccc(F)cc2)cc(OC)c1OC [C16, 4-fluoro-3’,4’,5’-trimethoxychalcone]
- Activity level in 3D confrontation culture (chick heart invasion assay, MCF-7/6) (MCF-7/6): 10 nM
- Peak ratio C16/IS relative to first time point, Average of three wavelengths ([1]; room temperature, 5.3 h): 90.3
- Peak ratio C16/IS relative to first time point, Average of three wavelengths ([1]; room temperature, 55 h): 95.0
- Peak ratio C16/IS relative to first time point, Average of three wavelengths ([1]; room temperature, 102 h): 96.9
- Peak ratio C16/IS relative to first time point, Average of three wavelengths ([1]; room temperature, 144 h): 85.8
- Distribution of compound in Medigel Sucralose ([1]; five sampling sites): uniformly distributed
- Stability of suspension in Medigel Sucralose ([1]; room temperature, over 144 h): stable
